Several values for one entry are separate records, joined by “and”; a condition that tells them apart may be missing. Identical values can stand only once. Like-named read-outs stand apart in the source and are kept apart here.
Experiments:
[1] = Stability of PPA in various diluent (peroxy value by titrimetry); format: physicochemical
Description: Stability of PPA in various diluent. In a separate study, the peroxy value of the mixture was estimated using the titrimetry procedure in 10 minutes and after 4 h of preparing the PPA solution with different diluents.
The peroxy acid value of PPA, when diluted with different diluents, is summarized below in Table 12.

[2] = system: S. enteriditis ATCC 13076; test: Cell membrane permeability, crystal violet assay; format: cell-based, Salmonella enteriditis; details: n = 3, two hours at 37° C., ~pH 7, listed as PPA
Description: Method. Cell membrane permeability was determined through crystal violet assay where an alteration in the outer cell membrane will result in a higher uptake of the dye, indicating a greater membrane permeability. An overnight culture of S. enteriditis ATCC 13076 in TSBYE was harvested with centrifugation at 6700 rcf for five minutes at room temperature using Eppendorf Centrifuge 5810 R. Upon aspirating the TSBYE, the cell pellets were washed with phosphate-buffered saline (PBS, pH 7.4, 10 mM) twice and resuspended in PBS. Subsequently, 0.75 mL of the cell suspension was added to 0.75 mL of the treatment (prepared in 10 mM PBS) into a two-milliliters microcentrifuge tube and incubated for two hours at 37° C. with agitation at 150 rpm. Cells without any treatments served as the negative control. After two hours of incubation, the cells were again harvested with centrifugation at 6700 rcf for five mins. Subsequently, the cells were resuspended in 10 μg/mL of crystal violet solution prepared in PBS and incubated for another 15 minutes with agitation at 150 rpm. After incubation, the suspension was centrifuged at 13,000 rcf for 15 minutes. The absorbance of the supernatant in each tube was measured at 590 nm. The percentage of dye uptake was calculated based on the ratio of absorbance values (Equation 1).

Enterobacteriaceae = format: cell-based
Description: Materials and Method. Naturally contaminated layer feed was collected, ground, and mixed well prior to weighing. The ground feed was weighed and separated into 15 different bags, each containing 300 g. The product/prototype was accurately weighed at the needed dosage and adjusted to a total volume of 5 mL prior to adding into the 300 g of feed with a syringe and needle. Product/prototype was added in batches (i.e., 2, 2, and 1 mL separately) and mixed after each addition. Five mL of sterile water was added into the feed and served as the control. The treated feed samples were homogenized after treatment and kept at 25° C. until the day of enumeration.
TEC of the 15 samples were studied over a period of 22 days with enumeration interval at time points 0, 1 and 22 days. The effect of peroxy acid was neutralized at each time point prior to enumeration. At each time point, 20 mL of 0.1 M sodium thiosulphate was added into 10 g of each treated feed sample in a sterile bag. The mixture was mixed well and left to stand for 10 minutes. After 10 minutes, 70 mL of BPW was added to achieve 10^−1 dilution. The feed suspension was homogenously mixed and left to stand for 30 minutes. Subsequently, the feed suspension was serial diluted to appropriate dilutions for enumeration. 100 uL of the diluted samples were plated onto Violet Red Bile Glucose (VRBG; CM0485 from Oxoid) agar, prepared as per recommended by the supplier. An aliquot of 0.1 mL of the feed suspension was plated onto the agar at each dilution and incubated at 37° C. for 18-24 hours prior to enumeration. Plating was carried out in triplicates. If low TEC is expected, the sample size is increased to 1 mL by plating 300, 300 and 400 uL onto three plates in triplicates for lower detection limit (10 CFU/g). The diluted feed samples (at 10^−1 dilution factor) were kept at 37° C. for 18-24 hours for enrichment prior to streaking. A loopful of diluted feed suspension was streaked onto the VRBG agar and incubated at 37° C. for 18-24 hours to determine qualitatively the presence of Enterobacteriaceae for samples with undetectable TEC.

[3] = 2.5% ammonium hydroxide, after 10 minutes
[4] = 2.5% ammonium hydroxide, after 240 minutes
[5] = 5% sodium hydroxide, after 10 minutes
[6] = 5% sodium hydroxide, after 240 minutes
[7] = Deionized Water, after 10 minutes
[8] = Deionized Water, after 240 minutes
[9] = Sodium phosphate buffer, after 10 minutes
[10] = Sodium phosphate buffer, after 240 minutes

## CCC(=O)OO [Perpropionic acid, perpropionic acid]
[1]; 2 g PPA + 8 g 2.5% ammonium hydroxide
  pH: 6.11
[1]; 2 g PPA + 8 g 5% sodium hydroxide
  pH: 5.44
[1]; 2 g PPA + 8 g Deionized Water
  pH: 1.77
[1]; 2 g PPA + 8 g Sodium phosphate buffer
  pH: 5.34
[1]; [3]
  H2O2 (%): 1.85%
  PPA (%): 4.18%
[1]; [4]
  H2O2 (%): 2.34%
  PPA (%): 3.31%
[1]; [5]
  H2O2 (%): 1.47%
  PPA (%): 4.4%
[1]; [6]
  H2O2 (%): 1.12%
  PPA (%): 2.55%
[1]; [7]
  H2O2 (%): 1.85%
  PPA (%): 5.54%
[1]; [8]
  H2O2 (%): 1.96%
  PPA (%): 4.75%
[1]; [9]
  H2O2 (%): 1.92%
  PPA (%): 5.82%
[1]; [10]
  H2O2 (%): 1.88%
  PPA (%): 5.19%
[2]; 1 kg/T
  Dye uptake, Average ± SD: 67.32% and 67.32 ± 0.80^d %
[2]; 2.5 kg/T
  Dye uptake, Average ± SD: 83.82% and 83.82 ± 0.78^e %
[2]; 5 kg/T
  Dye uptake, Average ± SD: 88.27% and 88.27 ± 0.42^f %
Enterobacteriaceae; 2.5 kg/ton, post treatment Day 1
  TEC: 2.41 log CFU/g
Enterobacteriaceae; 2.5 kg/ton, post treatment Day 22
  TEC: <1.00 log CFU/g
Enterobacteriaceae; 2.5 kg/ton, pre-treatment Day 0
  TEC: 2.12 log CFU/g
Enterobacteriaceae; 5.0 kg/ton, post treatment Day 1
  TEC: 2.47 log CFU/g
Enterobacteriaceae; 5.0 kg/ton, post treatment Day 22
  TEC: 1.73 log CFU/g
Enterobacteriaceae; 5.0 kg/ton, pre-treatment Day 0
  TEC: <2.00 log CFU/g
Enterobacteriaceae; 10.0 kg/ton, post treatment Day 1
  TEC: 2.19 log CFU/g
Enterobacteriaceae; 10.0 kg/ton, post treatment Day 22
  TEC: <1.00 log CFU/g
Enterobacteriaceae; 10.0 kg/ton, pre-treatment Day 0
  TEC: <2.00 log CFU/g

— patent publication US20250008983A1, “COMPOSITIONS CONTAINING PEROXYACIDS TO CONTROL PATHOGEN GROWTH IN ANIMAL FEED AND RELATED METHODS” (KEMIN INDUSTRIES, INC., priority 2023, published 2025)
